As usually defined, the melting point is the temperature, or range, at which the solid turns liquid.

SMILES strings stand for the structures. Counter-ions that a name gives are not always drawn.

The results in this text go back to patent US7285558B2, “Pyrazolo[3,4-d]pyrimidines inhibiting H. pylori infections” (AstraZeneca AB, priority 2001, dated 2007).

In one series the target is T1, H. pylori MurI (Helicobacter pylori, UniProt Q9ZLT0).
T1 sequence (Q9ZLT0 1-255): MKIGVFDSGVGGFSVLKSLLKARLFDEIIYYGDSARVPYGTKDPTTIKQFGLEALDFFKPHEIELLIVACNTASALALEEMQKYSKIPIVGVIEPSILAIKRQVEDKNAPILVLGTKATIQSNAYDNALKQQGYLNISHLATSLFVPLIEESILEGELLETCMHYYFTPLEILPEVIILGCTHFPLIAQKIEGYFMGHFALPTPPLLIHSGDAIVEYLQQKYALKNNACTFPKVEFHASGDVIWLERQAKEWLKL
The experiment in a line: Glutamate racemase (MurI) activity assay, coupled to L-glutamate dehydrogenase (LGDH), fluorescence readout. Format: biochemical. Conditions: 1000 nM H. pylori MurI, 40 μM D-glutamate, room temperature, read-out: LGDH I50. On the procedure: Glutamate Racemase Activity Assay:
Glutamate racemase (MurI) activity was assayed by measuring the conversion of glutamate from D to L enantiomer. This reaction was coupled to the reduction of NAD^+ to NADH by L-glutamate dehydrogenase (LGDH). LGDH from bovine liver was obtained as a lyophilized powder (Sigma #G-7882) and dissolved in 10 mM Tris (Sigma #T-6791), pH 7.5, buffer containing 0.1 mM EDTA (Fisher #BP118-500) and 50% glycerol (Sigma #G-9012). The assay mixture consisted of 100 mM Tris-HCl, pH 8.0, 10 mM β-NAD (Sigma #N-7004), 5 mM DTT (Sigma #D-5545), 0.03% PEG (mw 8000, Sigma #P-5413), 0.03 mg/mL BSA (Pierce #23210), 15 U/mL LGDH, D-glutamate (Fluka #49460), and purified MurI. The following MurI concentrations were used: 1000 nM H. pylori MurI, 0.7 nM E. faecalis MurI, or 0.4 nM E. coli MurI. In the case of E. coli MurI 14 μM UDP-MurNAc-Ala was also added. The final concentration of D-glutamate added for H. pylori MurI was 40 μM, and the other orthologs used 1 mM D-glutamate. The assay was performed in 96-well black microtiter plates (Greiner #XN2-9511) with a final assay volume of 100 μL. Compounds were prepared (x) […]
[…] as 20 mM stock solutions in dimethyl sulphoxide (DMSO, Sigma #D-5879) and serial dilutions were prepared from these solutions using DMSO, 2 μL of which were added to the wells. Activity at room temperature was measured by monitoring the increase in fluorescence using a TECAN Ultra platereader with 340 nm excitation and 465 nm emission filters. The compounds provided have measured IC50 of less then 400 μM

`CCC(C#N)n1c(=O)n(C)c(=O)c2c(-c3ccncc3)n(Cc3cccc4ccccc34)nc21` (racemic) (as salt: trifluoroacetate) [Example 130, ±2-[5-methyl-2-(1-naphthylmethyl)-4,6-dioxo-3-(4-pyridinyl-2,4,5,6-tetrahydro-7H-pyrazolo[3,4-d]pyrimidin-7-yl]butanenitrile] showed a melting point of 75 to 77 °C.

Consider `Cn1c(=O)c2c(-c3ccncc3)n(Cc3cccc4ccccc34)nc2n(C[S+]([O-])C(F)(F)F)c1=O` (racemic) [Example 125, (±)5-methyl-2-(1-naphthylmethyl)-3-(4-pyridinyl)-7-{[(trifluoromethyl)sulfinyl]methyl}-2H-pyrazolo[3,4-d]pyrimidine-4,6(5H,7H)-dione,7H)-dione], for which the IC50 on H. pylori MurI amounted to 45.7 µM.

The compound `Cn1c(=O)c2c(-c3ccncc3)n(Cc3cccc4ccccc34)nc2n(C[S+](C)[O-])c1=O` (racemic) [Example 127, (±)5-methyl-7-[(methylsulfinyl)methyl]-2-(1-naphthylmethyl)-3-pyridin-4-yl-2H-pyrazolo[3,4-d]pyrimidine-4,6(5H,7H)-dione] gave a melting point of 107 to 109 °C. The IC50 at H. pylori MurI came to 26 µM.

Take `CCC(C#N)n1c(=O)n(C)c(=O)c2c(-c3ccncc3)n(Cc3cccc4ccccc34)nc21` (racemic) [Example 130, ±2-[5-methyl-2-(1-naphthylmethyl)-4,6-dioxo-3-(4-pyridinyl-2,4,5,6-tetrahydro-7H-pyrazolo[3,4-d]pyrimidin-7-yl]butanenitrile]: at H. pylori MurI, the IC50 worked out at 9.1 µM.

With `Cn1c(=O)c2c(-c3ccncc3)n(Cc3cccc4ccccc34)nc2n(CS(=O)(=O)C(F)(F)F)c1=O` [Example 126, 5-methyl-2-(1-naphthylmethyl)-3-(4-pyridinyl)-7-{[(trifluoromethyl)sulfonyl]methyl}-2H-pyrazolo[3,4-d]pyrimidine-4,6(5H,7H)-dione], the IC50 at H. pylori MurI came to 18 µM.

The compound `Cn1c(=O)c2c(-c3ccncc3)n(Cc3cccc4ccccc34)nc2n(C[S+]([O-])c2ccccc2)c1=O` (stereo not shown) [Example 128, 5-methyl-2-(1-naphthylmethyl)-7-[(phenylsulfinyl)methyl]-3-pyridin-4-yl-2H-pyrazolo[3,4-d]pyrimidine-4,6(5H,7H)-dione] registered a melting point of 130 to 135 °C.

As to `CC(C)Cn1c(=O)n(C)c(=O)c2c(-c3cccc(-c4nnn[nH]4)c3)n(Cc3cccc4ccccc34)nc21` [Example 129, 7-isobutyl-5-methyl-2-(1-naphthylmethyl)-3-[3-(1H-1,2,3,4-tetraazol-5-yl)phenyl]-2H-pyrazolo[3,4-d]pyrimidine-4,6(5H,7H)-dione], the melting point fell in the range of 251 to 254 °C. In addition, the IC50 on H. pylori MurI amounted to 1.6 µM.

As for `CC(C)Cn1c(=O)n(C)c(=O)c2c(-c3ccccc3F)n(Cc3csc4ccccc34)nc21` [Example 131, 2-(1-benzothiophen-3-ylmethyl)-3-(2-fluorophenyl)-7-isobutyl-5-methyl-2H-pyrazolo[3,4-d]pyrimidine-4,6(5H,7H)-dione], the melting point was in the range of 55 to 57 °C.
